Assay [1] addresses T1, Adrenergic receptor beta (Rattus norvegicus) (UniProt P18090+P10608+P26255).
Description: beta-adrenoceptor blocking activity of the intravenously administered compound was evaluated by inhibition of isiprenaline-induced tachycardia in rats; NA indicates not active
Assay [2] concerns the target T1, Adrenergic receptor beta (Rattus norvegicus). The source holds these as a separate data set.
Description: beta-adrenoceptor blocking activity of the perorally administered compound was evaluated by inhibition of isiprenaline-induced tachycardia in rats; NA indicates not active
In assay [3] the test system is Rattus norvegicus. Description: Saluretic activity was evaluated for K+ by flame photometry at 15 mg/kg perorally. The assay is classed as functional. The settings on record: route oral.
Assay [4] relates to Rattus norvegicus. Description: Saluretic activity was evaluated for K+ by flame photometry at 30 mg/kg perorally. The assay is classed as functional. The settings on record: route oral.
In assay [5] the test system is Rattus norvegicus. Description: Saluretic activity was evaluated for K+ by flame photometry at 8 mg/kg perorally. The assay is classed as functional. As to conditions: route oral.
In assay [6] the test system is Rattus norvegicus. Description: Saluretic activity was evaluated for Na+ by flame photometry at 15 mg/kg perorally. It counts as functional. The settings on record: route oral.
Assay [7] relates to Rattus norvegicus. The assay is described as follows: Saluretic activity was evaluated for Na+ by flame photometry at 30 mg/kg perorally. The assay is classed as functional. As to conditions: route oral.
Assay [8] deals with Rattus norvegicus. Description: Saluretic activity was evaluated for Na+ by flame photometry at 8 mg/kg perorally. It counts as functional. The settings on record: route oral.
Assay [9] deals with Rattus norvegicus. Description: Diuretic activity given as urinary output of 15 mg/kg perorally administered compound in rats. As to conditions: route oral. The assay is classed as functional, Urine.
Assay [10] relates to Rattus norvegicus. The assay is described as follows: Diuretic activity given as urinary output of 30 mg/kg perorally administered compound in rats. The settings on record: route oral. The assay is classed as functional, Urine.
For assay [11], the system named is Rattus norvegicus. The assay is described as follows: Diuretic activity given as urinary output of 8 mg/kg perorally administered compound in rats. The settings on record: route oral. It counts as functional, Urine.
Assay [12] is described as follows: Ratio of saluretic activity for Na+ over saluretic activity of K+ in rats after peroral administration of 15 mg/kg of compound. It counts as functional. The settings on record: route oral.
Assay [13] in a line: Ratio of saluretic activity for Na+ over saluretic activity of K+ in rats after peroral administration of 30 mg/kg of compound. The assay is classed as functional. The settings on record: route oral.
A short description of assay [14]: Ratio of saluretic activity for Na+ over saluretic activity of K+ in rats after peroral administration of 8 mg/kg of compound. It counts as functional. The settings on record: route oral.
Assay [15] addresses Beta-1 adrenergic receptor (Homo sapiens, UniProt P08588).
Assay [16] has as its system Rattus norvegicus. Description: Saluretic activity was evaluated for K+ by flame photometry at 50 mg/kg perorally. The assay is classed as functional. The settings on record: route oral.
Assay [17] concerns Rattus norvegicus. Description: Saluretic activity was evaluated for Na+ by flame photometry at 50 mg/kg perorally. The assay is classed as functional. The settings on record: route oral.
The test system of assay [18] is Rattus norvegicus. Description: Diuretic activity given as urinary output at 15 mg/kg perorally. It counts as functional, Urine. As to conditions: route oral.
The subject of assay [19] is Rattus norvegicus. The assay is described as follows: Diuretic activity given as urinary output of 50 mg/kg perorally administered compound in rats. The assay is classed as functional, Urine. The settings on record: route oral.
Assay [20] in a line: Ratio of saluretic activity for Na+ over saluretic activity of K+ in rats after peroral administration of 50 mg/kg of compound. The assay is classed as functional. As to conditions: route oral.
In assay [21] the target is Beta-1 adrenergic receptor (Meleagris gallopavo) (UniProt P07700). The assay is described as follows: Inhibition of [3H]dihydroalprenolol binding ([3H]-DHA) to beta-1-adrenoceptor from turkey erythrocyte membranes; Not active.
Sequence of Beta-1 adrenergic receptor (Meleagris gallopavo) (P07700 whole entry, looked up): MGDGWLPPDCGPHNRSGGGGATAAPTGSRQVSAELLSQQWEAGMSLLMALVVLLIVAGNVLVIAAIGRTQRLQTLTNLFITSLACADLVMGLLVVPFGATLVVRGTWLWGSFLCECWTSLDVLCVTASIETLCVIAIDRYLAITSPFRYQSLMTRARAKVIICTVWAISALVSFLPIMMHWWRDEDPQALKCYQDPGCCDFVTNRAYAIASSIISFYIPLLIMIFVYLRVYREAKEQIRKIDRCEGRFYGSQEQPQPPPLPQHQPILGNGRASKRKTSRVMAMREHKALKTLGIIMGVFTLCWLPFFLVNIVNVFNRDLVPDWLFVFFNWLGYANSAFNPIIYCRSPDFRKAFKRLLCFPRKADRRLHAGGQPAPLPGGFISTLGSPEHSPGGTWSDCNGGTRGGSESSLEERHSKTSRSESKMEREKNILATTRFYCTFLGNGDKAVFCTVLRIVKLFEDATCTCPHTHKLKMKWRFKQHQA

Values joined by “and” are separate entries in the source; they are usually repeats but may differ in a detail not shown here. Equal values may be shown once. Active and inactive are the calls of the source. The rule behind the calls is not given here.

Sequence of Beta-1 adrenergic receptor (P08588 whole entry): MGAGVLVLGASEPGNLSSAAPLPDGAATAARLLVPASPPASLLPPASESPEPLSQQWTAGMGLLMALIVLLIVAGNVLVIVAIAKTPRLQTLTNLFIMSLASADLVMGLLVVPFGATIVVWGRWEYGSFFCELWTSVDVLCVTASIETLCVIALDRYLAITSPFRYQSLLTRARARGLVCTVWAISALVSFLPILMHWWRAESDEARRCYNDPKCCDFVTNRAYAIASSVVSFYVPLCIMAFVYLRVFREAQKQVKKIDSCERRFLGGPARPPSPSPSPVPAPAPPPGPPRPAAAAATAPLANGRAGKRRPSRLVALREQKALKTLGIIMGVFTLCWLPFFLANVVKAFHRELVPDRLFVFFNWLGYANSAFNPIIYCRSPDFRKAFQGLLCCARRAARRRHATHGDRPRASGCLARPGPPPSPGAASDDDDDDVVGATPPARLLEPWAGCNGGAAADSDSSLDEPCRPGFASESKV

On to `NS(=O)(=O)c1cc(S(=O)(=O)NCCNCC(O)COc2cccc3ccccc23)ccc1Cl` (stereo not given), for which the ED50 result in [1] and in assay [2] was “inactive” throughout.

In the case of `NS(=O)(=O)c1cc(N2CCN(CC(O)COc3cccc4c3SCC(=O)N4)CC2)ccc1Cl` (stereo not given), the Activity in assay [3] is 1.8 m equiv kg-1; in assay [4] it was 2 m equiv kg-1; in assay [5], 1.7 m equiv kg-1; in assay [6], 2.9 m equiv kg-1; in assay [7], 3 m equiv kg-1; in assay [8], 2.2 m equiv kg-1. The Urinary output came to 3.1 mL in assay [9], 3.5 mL in assay [10] and 2.6 mL in assay [11]. The Ratio in assay [12] is on record as 1.6; in [13], 1.5; in assay [14], 1.3. For the same compound, the ED50 entry in [1] was “inactive”.

Turning to `NS(=O)(=O)c1cc(S(=O)(=O)NCCNCC(O)COc2cccc3c2CCC(=O)N3)ccc1Cl` (stereo not given), the Activity in assay [3] was 1.2 m equiv kg-1; in assay [4] it was 1.5 m equiv kg-1; in assay [5] it was 0.9 m equiv kg-1; in [6], 2.3 m equiv kg-1; in assay [7], 3.4 m equiv kg-1; in [8], 1.8 m equiv kg-1. In addition, the Urinary output in assay [9] (15 mg/kg) is 3.1 mL and 4.6 mL; in assay [11], 2.2 mL. Besides, the Ratio in assay [12] is given as 1.9; in assay [13], 2.3; in assay [14], 2.

With `NS(=O)(=O)c1cc(NCCNCC(O)COc2cccc3ccccc23)ccc1Cl` (stereo not given), the Activity in [3] was found to be 2 m equiv kg-1; in [4], 2.6 m equiv kg-1; in assay [5], 1.6 m equiv kg-1; in assay [6] it was 3.1 m equiv kg-1; in assay [7], 3.2 m equiv kg-1; in [8], 2.8 m equiv kg-1. Moreover, the Urinary output stood at 3.2 mL in assay [9], 3.5 mL in [10] and 2.4 mL in assay [11]. The Ratio in assay [12] came out at 1.5; in assay [13], 1.2; in assay [14], 1.7. The ED50 result in [1] is “inactive”.

As to `NS(=O)(=O)c1cc(S(=O)(=O)N2CCN(CC(O)COc3cccc4c3CCC(=O)N4)CC2)ccc1Cl` (stereo not given), in assay [15], the Ki result is recorded as “Not Active”.

Regarding `NS(=O)(=O)c1cc(NCCNCC(O)COc2cccc3c2CCC(=O)N3)ccc1Cl` (stereo not given), the Ki entry in assay [15] is on record as “Not Active”.

For `NS(=O)(=O)c1cc(N2CCN(CC(O)COc3cccc4ccccc34)CC2)ccc1Cl` (stereo not given), the Activity in assay [3] was determined as 1.4 m equiv kg-1; in [4] it was 2 m equiv kg-1; in assay [5], 1.3 m equiv kg-1; in assay [6] it was 1.7 m equiv kg-1; in assay [7], 3.2 m equiv kg-1; in assay [8] it was 2.4 m equiv kg-1. For the same compound, the Urinary output in assay [9] came to 2.2 mL; in [10] it was 2.9 mL; in assay [11] it was 1.9 mL. Moreover, the Ratio in [12] amounted to 1.2; in assay [13] it was 1.4; in [14], 1.8.

As to `NS(=O)(=O)c1cc(S(=O)(=O)NCCNCC(O)COc2cccc3c2SCC(=O)N3)ccc1Cl` (stereo not given), the Activity in assay [3] is 1.3 m equiv kg-1; in assay [4] it was 2.4 m equiv kg-1; in assay [5] it was 1.3 m equiv kg-1; in assay [6], 3 m equiv kg-1; in assay [7], 4.5 m equiv kg-1; in assay [8], 3.2 m equiv kg-1. Also, the figures for the Urinary output in assay [9], in [10] and in assay [11] were 3.7 mL, 5.7 mL and 3.5 mL, respectively. Moreover, the figures for the Ratio in assay [12], in assay [13] and in assay [14] were 2.3, 1.9 and 2.5, respectively.

As to `NS(=O)(=O)c1cc(S(=O)(=O)N2CCN(CC(O)COc3cccc4c3SCC(=O)N4)CC2)ccc1Cl` (stereo not given), the Ki entry in assay [15] is given as “Not Active”.

As for `NS(=O)(=O)c1cc(N2CCN(CC(O)COc3cccc4c3CCC(=O)N4)CC2)ccc1Cl` (stereo not given), in assay [15], the Ki entry is “Not Active”.

In the case of `NS(=O)(=O)c1cc(C(=O)N2CCN(CC(O)COc3cccc4c3CCC(=O)N4)CC2)ccc1Cl` (stereo not given), the Ki result in assay [15] is listed as “Not Active”.

Regarding `NS(=O)(=O)c1cc(C(=O)NCCNCC(O)COc2cccc3c2SCC(=O)N3)ccc1Cl` (stereo not given), the Activity in assay [3] was determined as 0.9 m equiv kg-1; in assay [4], 1.1 m equiv kg-1; in assay [16], 1.5 m equiv kg-1; in [5], 0.8 m equiv kg-1; in assay [6], 1.1 m equiv kg-1; in assay [7] it was 1.7 m equiv kg-1. In addition, the Activity in assay [17] came out at 3.1 m equiv kg-1; in assay [8], 0.9 m equiv kg-1. Moreover, the Urinary output in [18] worked out at 1.7 mL; in assay [10], 2 mL; in assay [19], 4.3 mL; in assay [11] it was 1.2 mL. For the same compound, the Ratio in assay [12] is on record as 1.2; in assay [13], 1.5; in assay [20], 2.1; in assay [14] it was 1.1.

For `NS(=O)(=O)c1cc(C(=O)N2CCN(CC(O)COc3cccc4c3SCC(=O)N4)CC2)ccc1Cl` (stereo not given), the Ki entry in assay [15] was “Not Active”.

In the case of `NS(=O)(=O)c1cc2c(cc1Cl)NCNS2(=O)=O` [HYDROCHLOROTHIAZIDE], the Activity in [3] is 1.9 m equiv kg-1; in assay [4] it was 2.3 m equiv kg-1; in [5], 1.8 m equiv kg-1; in assay [6], 3.9 m equiv kg-1; in [7] it was 5.1 m equiv kg-1; in assay [8], 3.1 m equiv kg-1. The figures for the Urinary output in assay [9], in assay [10] and in assay [11] were 5.9 mL, 7.3 mL and 4 mL, respectively. For the same compound, the Ratio in assay [12] is 2; in [13], 2.2; in assay [14], 1.7.

For `NS(=O)(=O)c1cc(NCCNCC(O)COc2cccc3c2SCC(=O)N3)ccc1Cl` (stereo not given), the Activity in assay [3] is 1.3 m equiv kg-1; in assay [4], 1.2 m equiv kg-1; in [5], 1.1 m equiv kg-1; in assay [6], 2.6 m equiv kg-1; in assay [7], 2.2 m equiv kg-1; in assay [8] it was 2.1 m equiv kg-1. The Urinary output in assay [9] was 3.3 mL; in assay [10], 3.1 mL; in assay [11] it was 2.6 mL. Further, the figures for the Ratio in assay [12], in assay [13] and in assay [14] were 2, 1.8 and 1.9, respectively.

Regarding `NS(=O)(=O)c1cc(C(=O)NCCNCC(O)COc2cccc3c2CCC(=O)N3)ccc1Cl` (stereo not given), the Activity is given as 1.5 m equiv kg-1 in [3]; 1.8 m equiv kg-1 in assay [4]; 1.8 m equiv kg-1 in [5]; 2 m equiv kg-1 in assay [6]; 2.9 m equiv kg-1 in assay [7]; 2.6 m equiv kg-1 in assay [8]. For the same compound, the Urinary output came out at 2.6 mL in [9], 3.3 mL in [10] and 2.8 mL in [11]. In addition, the values for the Ratio in [12], in assay [13] and in [14] were 1.3, 1.6 and 1.4, respectively.

In the case of `NS(=O)(=O)c1cc(C(=O)NCCNCC(O)COc2cccc3ccccc23)ccc1Cl` (stereo not given), the Activity in [3] was 1.7 m equiv kg-1; in assay [4], 1.4 m equiv kg-1; in assay [5] it was 1.2 m equiv kg-1; in assay [6] it was 3.1 m equiv kg-1; in assay [7] it was 1.8 m equiv kg-1; in assay [8], 2.5 m equiv kg-1. For the same compound, the Urinary output was 4.8 mL in assay [9], 2.9 mL in [10] and 5.2 mL in assay [11]. The Ratio in assay [12] is 1.8; in assay [13], 1.2; in [14] it was 2.1.

As for `NS(=O)(=O)c1cc(S(=O)(=O)N2CCN(CC(O)COc3cccc4ccccc34)CC2)ccc1Cl` (stereo not given), the Ki entry in [15] is “Not Active”.

Turning to `NS(=O)(=O)c1cc(C(=O)N2CCN(CC(O)COc3cccc4ccccc34)CC2)ccc1Cl` (stereo not given), the Ki result in assay [21] is given as “Not Active”.
